# How the values were obtained:
# [1] = biological target: T1, FAAH (Fatty Acid Amide Hydrolase) enzyme (Mus musculus, UniProt O08914); experiment: Radioenzymatic assay of [3H] anandamide hydrolysis by FAAH; format: biochemical; conditions: mouse brain homogenate; 20 min preincubation; 10 μM anandamide, 20 min at ambient temperature; read-out: IC50 (concentration inhibiting 50% of the control enzyme activity of FAAH)
# T1 construct: the source of FAAH enzyme is a homogenate of mouse brain from which the cerebellum and the medulla oblongata have been removed; from tissue; host or cells: mouse brain homogenate (cerebellum and medulla oblongata removed)
# T1 sequence (O08914 1-579): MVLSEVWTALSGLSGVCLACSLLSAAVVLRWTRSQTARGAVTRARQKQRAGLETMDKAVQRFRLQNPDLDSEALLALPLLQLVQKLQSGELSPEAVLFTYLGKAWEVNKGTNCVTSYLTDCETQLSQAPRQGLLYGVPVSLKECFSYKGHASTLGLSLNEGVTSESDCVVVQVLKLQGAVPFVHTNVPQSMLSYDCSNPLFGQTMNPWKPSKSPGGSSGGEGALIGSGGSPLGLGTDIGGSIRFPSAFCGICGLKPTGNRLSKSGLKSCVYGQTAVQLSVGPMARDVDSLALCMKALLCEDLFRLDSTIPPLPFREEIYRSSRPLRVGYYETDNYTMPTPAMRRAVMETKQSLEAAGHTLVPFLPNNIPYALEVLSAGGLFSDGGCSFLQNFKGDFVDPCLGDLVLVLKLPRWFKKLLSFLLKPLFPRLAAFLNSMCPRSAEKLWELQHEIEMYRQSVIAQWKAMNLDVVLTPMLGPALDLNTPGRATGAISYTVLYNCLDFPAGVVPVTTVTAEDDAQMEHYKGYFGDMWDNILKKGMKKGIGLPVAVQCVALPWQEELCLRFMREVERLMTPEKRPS
# Protocol: Tests comprised measuring the activity, in vitro, of the compounds of the invention on the FAAH enzyme.
# The inhibitory activity was measured in a radioenzymatic assay based on measuring the product of hydrolysis (ethanolamine [1-3H]) of anandamide by FAAH (Life Science (1995), 56, 1999-2005 and Journal of Pharmacology and Experimented Therapeutics (1997), 283, 729-734). The products of hydrolysis of [^3H] anandamide, labeled on ethanolamine, are arachidonic acid and [^3H]ethanolamine, and the source of FAAH enzyme is a homogenate of mouse brain from which the cerebellum and the medulla oblongata have been removed. The mouse brains are removed, and stored at −80° C. until they are used, or homogenized immediately for twice 5 seconds using a Precellys apparatus at 5000 rpm (Bertin) in a 10 mM Tris-HCl, 150 mM NaCl, 1 mM EDTA buffer (pH 8) at 4° C. The concentration of the homogenates is then adjusted to 20 μg/μl.
# (§1) The dilution series of the compounds is prepared from stock solutions at 20 mM in 100% DMSO. […]
# (§2) Assaying of the FAAH activity is carried out in a 96-well microplate in a final reaction volume of 70 μl. […] After stirring for 10 minutes, the microplate is centrifuged for 15 minutes at 4000 g and a 30 μl aliquot of the aqueous phase containing the [^3H]ethanolamine produced is removed and then counted for 5 minutes by liquid scintillation (Wallac 1450 Microbeta).
# [2] = biological target: T2, MGL (monoacyl glycerol lipase) enzyme (Mus musculus, UniProt O35678); experiment: Radioenzymatic assay of [3H] 2-oleoyl glycerol hydrolysis by MGL; format: biochemical; conditions: mouse brain homogenate; 20 min preincubation; 50 μM 2-OG, 20 min at ambient temperature; read-out: IC50 (concentration inhibiting 50% of the control enzyme activity of MGL)
# T2 construct: the source of MGL enzyme is a homogenate of mouse brain from which the cerebellum and the medulla oblongata have been removed; from tissue; host or cells: mouse brain homogenate (cerebellum and medulla oblongata removed)
# T2 sequence (O35678 1-303): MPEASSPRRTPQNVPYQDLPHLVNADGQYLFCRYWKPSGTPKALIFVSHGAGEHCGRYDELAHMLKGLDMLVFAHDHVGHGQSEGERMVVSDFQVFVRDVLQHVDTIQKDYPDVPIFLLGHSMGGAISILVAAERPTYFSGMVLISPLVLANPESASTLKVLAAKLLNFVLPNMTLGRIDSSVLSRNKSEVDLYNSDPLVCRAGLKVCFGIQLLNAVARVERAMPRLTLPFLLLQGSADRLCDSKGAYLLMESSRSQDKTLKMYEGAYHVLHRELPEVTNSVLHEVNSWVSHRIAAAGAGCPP
# Protocol: Tests comprised measuring the activity, in vitro, of the compounds of the invention on the MGL enzyme.
# The inhibitory activity was measured in a radioenzymatic assay based on measuring the product of hydrolysis of 2-oleoyl glycerol ([^3H] 2-OG) by MGL. The products of hydrolysis of [^3H] 2-OG, labeled on the glycerol, are oleic acid and [^3H] glycerol, and the source of MGL enzyme is a homogenate of mouse brain from which the cerebellum and the medulla oblongata have been removed. The mouse brains are removed, and stored at −80° C. until they are used, or homogenized immediately for twice 5 seconds using a Precellys apparatus at 5000 rpm (Bertin) in a 10 mM Tris-HCl, 150 mM NaCl, 1 mM EDTA buffer (pH 8) at 4° C. The concentration of the homogenates is then adjusted to 7.5 μg/μl.
# as §1
# as §2, with “MGL” for “FAAH”, “100” for “70”, “[^3H] glycerol” for “[^3H]ethanolamine”, “Microbeta). […]” for “Microbeta).”
Compound,IC50 [1],melting point,IC50 [2]
"O=C(N1CCN(c2cccc(C(F)(F)F)c2)CC1)n1nnc2ccc(-c3ccc(Cl)cc3)nc21 [Compound No. 3, [5-(4-chlorophenyl)[1,2,3]triazolo[4,5-b]pyridin-3-yl][4-(3-trifluoromethylphenyl)piperazin-1-yl]methanone]",2 nM,139 to 141 °C,2 nM
"O=C(N1CCN(c2cccc(C(F)(F)F)c2)CC1)n1nnc2ccc(-c3ccccc3Cl)nc21 [compound 1, [5-(2-chlorophenyl)[1,2,3]triazolo[4,5-b]pyridin-3-yl][4-(3-trifluoromethylphenyl)piperazin-1-yl]methanone]",,69 to 71 °C,
"O=C(N1CCN(c2cccc(C(F)(F)F)c2)CC1)n1nnc2ccc(-c3cccc(Cl)c3)nc21 [compound 2, [5-(3-chlorophenyl)[1,2,3]triazolo[4,5-b]pyridin-3-yl][4-(3-trifluoromethylphenyl)piperazin-1-yl]methanone]",,102 to 104 °C,
"O=C(N1CCN(c2cccc(C(F)(F)F)c2)CC1)n1nnc2ccc(-c3ccoc3)nc21 [compound 4, (5-furan-3-yl[1,2,3]triazolo[4,5-b]pyridin-3-yl)[4-(3-trifluoromethylphenyl)piperazin-1-yl]methanone]",,68 to 70 °C,

# The next lines start with the values.
IC50 [1],melting point,IC50 [2],Compound
,93 to 95 °C,,"O=C(N1CCN(c2cccc(C(F)(F)F)c2)CC1)n1nnc2ccc(-c3ccsc3)nc21 [compound 5, (5-thiophen-3-yl[1,2,3]triazolo[4,5-b]pyridin-3-yl)[4-(3-trifluoromethylphenyl)piperazin-1-yl]methanone]"
,90 to 92 °C,,"O=C(N1CCN(c2cccc(C(F)(F)F)c2)CC1)n1nnc2ccc(-c3ccc4ccccc4c3)nc21 [compound 6, (5-naphthalen-2-yl[1,2,3]triazolo[4,5-b]pyridin-3-yl)[4-(3-trifluoromethylphenyl)piperazin-1-yl]methanone]"

# Source: US7863279B2, “Triazolopyridine carboxamide derivatives and triazolopyrimidine carboxamide derivatives, preparation thereof and therapeutic use thereof” (sanofi-aventis, priority 2007, dated 2011)
